According to patent US10350188B2, “Use of Neu1 sialidase inhibitors in the treatment of cancer” (priority 2011, dated 2019):
Values joined by “and” are separate entries in the source; they are usually repeats but may differ in a detail not shown here. Equal entries are not always repeated.

Assays:
[1] = tested on: MiaPaCa-2 cells; assay: Cell viability of MiaPaCa-2 pancreatic cancer cells in culture (MTT or WST-1, 72 hrs); assay type: cell-based, human
[2] = tested on: PANC-1 cells; assay: Cell viability of PANC-1 pancreatic cancer cells in culture (MTT or WST-1, 72 hrs); assay type: cell-based, human
[3] = tested on: BxPC-3 cells; assay: Cell viability of BxPC-3 pancreatic cancer cells in culture (MTT or WST-1, 72 hrs); assay type: cell-based, human; settings: oseltamivir phosphate alone; BxPC-3 (chemo-resistant); MTT or WST-1, 72 hrs
[4] = tested on: Capan-1 cells; assay: Cell viability of Capan-1 pancreatic metastatic cancer cells in culture (MTT or WST-1, 72 hrs); assay type: cell-based, human; settings: oseltamivir phosphate alone; Capan-1 (chemo-sensitive); MTT or WST-1, 72 hrs
Description: CAPAN-1 cells (ATCC® Number: HTB-79™) are human pancreatic cancer cell line with epithelial morphology expressing the 17 beta-estradiol (E2)-binding estrogen receptor and derived from metastatic liver with adenocarcinoma.
(§1) All cells were grown at 37° C. in 5% CO2 in culture media containing Dulbecco's Modified Eagle Medium (DMEM) (Gibco, Rockville, Md.) supplemented with 10% fetal calf serum (FCS) (HyClone, Logan, Utah, USA).
(§2) MTT is a colorimetric assay for measuring the activity of enzymes that reduce MTT or closely related dyes (XTT, MTS, WSTs) to formazan dye, giving a purple color. A main application allows the assessment of the viability (cell counting) and the proliferation of cells (cell culture assays). It can also be used to determine cytotoxicity of potential medicinal agents and toxic materials, since those agents would stimulate or inhibit cell viability and growth. MTT (3-(4,5-Dimethylthiazol-2-yl)-2,5-diphenyltetrazolium bromide, a yellow tetrazole), is reduced to purple formazan in living cells. A solubilization solution (usually either dimethyl sulfoxide, an acidified ethanol solution, or a solution of the detergent sodium dodecyl sulphate in diluted hydrochloric acid) is added to dissolve the insoluble purple formazan product into a coloured solution. The absorbance of this coloured solution can be quantified by measuring at a certain wavelength (usually between 500 and 600 nm) by a spectrophotometer. The absorption maximum is dependent on the solvent employed.
(§3) WST-1 (Roche Applied Sciences, Montreal) is a ready-to-use substrate which measures the metabolic activity of viable cells. The WST-1 assay is nonradioactive and can be performed entirely in a microplate. It is suitable for measuring cell proliferation, cell viability or cytotoxicity. The assay is based on the reduction of WST-1 by viable cells. The reaction produces a soluble formazan salt. The procedure involves: Culturing the cells in a 96-well microplate, then incubating them with WST-1 for approx. 0.5-4 h. During this incubation period, viable cells convert WST-1 to a water-soluble formazan dye. Quantitating the formazan dye in the microplate is done with an ELISA plate reader. The absorbance directly correlates with the cell number.

[5] = tested on: MDA MB-231 cells; assay: Cell viability of MDA MB-231 breast cancer cells in culture (MTT or WST-1, 72 hrs); assay type: cell-based, human; settings: oseltamivir phosphate alone; MDA MB-231 (chemo-resistant); MTT or WST-1, 72 hrs
Description: (§4) MDA MB-231cells (ATCC® Number: HTB-26™) are human mammary gland breast adenocarcinoma derived from metastatic pleural effusion with epithelial morphology. MCF-7 (ATCC® Number: HTB-22™) are human mammary gland breast adenocarcinoma derived from metastatic pleural effusion with epithelial morphology.
as §1, §2, §3

[6] = tested on: MCF-7 cells; assay: Cell viability of MCF-7 breast cancer cells in culture (MTT or WST-1, 72 hrs); assay type: cell-based, human; settings: oseltamivir phosphate alone; MCF-7 (chemo-sensitive); MTT or WST-1, 72 hrs
Description: as §4, §1, §2, §3

[7] = tested on: A 2780 cells; assay: Cell viability of A 2780 ovarian cancer cells in culture (MTT or WST-1, 72 hrs); assay type: cell-based, human; settings: oseltamivir phosphate alone; A 2780 (chemo-sensitive); MTT or WST-1, 72 hrs
Description: (§5) A-2780 cells are human ovarian cancer cell line which was established from tumor tissue from an untreated patient with adenocarcinoma. Cells grow as a monolayer and in suspension in spinner cultures.
as §1, §2, §3

[8] = tested on: A 2780cis cells; assay: Cell viability of A 2780cis ovarian cancer cells in culture (MTT or WST-1, 72 hrs); assay type: cell-based, human; settings: oseltamivir phosphate alone; A 2780cis (chemo-resistant); MTT or WST-1, 72 hrs
Description: as §5, §1, §2, §3

[9] = tested on: MiaPaCa-2-eGFP pancreatic cancer cells implanted in RAG2/Cγ double mutant Balbc xenograft mice; assay: MiaPaCa-2-eGFP pancreatic cancer xenograft in RAG2/Cγ double mutant Balbc mice; assay type: in vivo, mouse
Description: Tumour measurements were taken twice a week.
MiaPaCa-2-eGFP pancreatic cancer cells at 1.5×10^6 in 0.2 mL were implanted subcutaneously in the right back flank of these mice. Each mouse in the study was identified by an ear punch number. Twice a week each mouse following implantation of the cancer cells was monitored for tumour volume growth (length and width) at the site of implantation, body weights, and body condition scoring. Scoring the body condition of rodents is a non-invasive method for assessing health and establishing endpoints for adults where body weight is not a viable monitoring tool, such as with tumour models. Body condition scores (BC) range from 1(emaciation) to 5 (obesity). An anticipated BCS of 2—under conditioned—or lower, requires justification in the protocol. Scores are determined by frequent visual and hands-on examination of each animal. The hands-on evaluation is done by gently holding the mouse by the base of the tail and passing a finger over the sacroiliac bones. The findings are matched to the descriptions and diagrams of BC ranges to determine a score. Scores are documented for each animal.

[10] = tested on: PANC-1 human pancreatic cancer cells implanted in RAG1/Cγ double mutant NOD xenograft mice; assay: PANC-1 pancreatic cancer xenograft in RAG1/Cγ double mutant NOD mice; settings: for Liver metastases % Inhibition: vs untreated day 79
Description: An immunodeficient mouse model with a double mutation in the combining recombinase activating gene-1 or -2 (RAG1 or RAG2) and common cytokine receptor γ chain (cγ) were used as xenograft mice. […] Mice deficient in both RAG2 and cγ (RAG2−/−/cγ−/−) were generated by inter-crossing and were maintained in SPF isolators in the Animal Care Facility, Queen's University, Kingston, Ontario K7L3N6, Canada. A colony was established in the animal facility. Mice deficient in both RAG1 and cγ (RAG1^−/−×cγ^−/−) on a non-obese diabetic (NOD) genetic background were obtained from the Jackson Laboratory (Bar Harbor, Me.) and a colony was established in the animal facility. All mice were kept under sterile conditions in micro-isolators or air-filtered cages, and were provided with autoclaved food and water. […] They were used between 6 and 8 weeks of age.
Puromycin-resistance eGFP transduced MiaPaCa-2 or PANC-1 cell clones were grown in 75 cm^2 cell culture flask at 80% confluence. The cells were resuspended into solution using TrypLE Express (Gibco) and washed with sterile saline. The cell suspension was centrifuged for 3 min at 900 rpm, and the cell pellet resuspended in sterile saline at a concentration of 5-10×10^6 cells/mL for 1-2×10^6 cells implantation into the right back flank of the mouse. Tumour measurements were taken twice a week. Tumour volumes were determined by (width square/2)×length.
The RAG1/Cγ double mutant xenograft mouse model was implanted with 2×10^6 PANC-1 cells in 0.2 mL in the right back flank.

[11] = oseltamivir phosphate analogues (TD), WST-1, 72 hrs
[12] = day 84, oseltamivir phosphate 2 mg/kg daily, alone or with Abraxane 0.5 / Gemcitabine 30 mg/kg
[13] = day 84, oseltamivir phosphate 5 mg/kg daily, alone or with Abraxane 0.5 / Gemcitabine 30 mg/kg
[14] = day 93, oseltamivir phosphate 2 mg/kg daily, alone or with Gemcitabine 30 mg/kg
[15] = day 93, oseltamivir phosphate 5 mg/kg daily, alone or with Gemcitabine 30 mg/kg
[16] = oseltamivir phosphate 2 mg/kg, alone day 90, with abraxane 0.5 day 78, with gemcitabine 30 day 110

## CCOC(=O)C1=C[C@@H](OC(CC)CC)[C@H](NC(C)=O)[C@@H](N)C1 [oseltamivir phosphate]
[1]; oseltamivir phosphate alone, MiaPaCa (chemo-resistant), MTT or WST-1, 72 hrs
  LD50: 850 µM
[1]; [11]
  LD50 MiaPaCa-2: 850 µM
[2]; oseltamivir phosphate alone, PANC-1 (chemo-resistant), MTT or WST-1, 72 hrs
  LD50: 1462 µM
[2]; [11]
  LD50 PANC-1: 1462 µM
[3]
  LD50: 975 µM
[4]
  LD50: 2 µM
[5]
  LD50: 0.6 µM
[6]
  LD50: >3 µM
[7]
  LD50: 1.5 µM
[8]
  LD50: 1.0 µM
[9]; Table 8 study, day 46, 50 mg/kg, vs untreated
  % Inhibition (tumour volume): 60.4%
[9]; Table 8 study, day 46, 100 mg/kg, vs untreated
  % Inhibition (tumour volume): 61.0%
[9]; Table 8 study, day 46, 200 mg/kg, vs untreated
  % Inhibition (tumour volume): 58.5%
[9]; Table 8 study, day 46 post implantation, oseltamivir phosphate 50 mg/kg
  Tumour volume: 368 ± 38 (4) mm^3
[9]; Table 8 study, day 46 post implantation, oseltamivir phosphate 100 mg/kg
  Tumour volume: 362 ± 62 (4) mm^3
[9]; Table 8 study, day 46 post implantation, oseltamivir phosphate 200 mg/kg
  Tumour volume: 386 ± 88 (4) mm^3
[9]; day 48, 2 mg/kg i.p., vs untreated
  % Inhibition (tumour volume): 61.7%
[9]; day 48, 10 mg/kg i.p., vs untreated
  % Inhibition (tumour volume): 71.5%
[9]; day 48, 50 mg/kg i.p., vs untreated
  % Inhibition (tumour volume): 60.3%
[9]; day 48, 100 mg/kg i.p., vs untreated
  % Inhibition (tumour volume): 58.9%
[9]; day 48 post implantation, oseltamivir phosphate 2 mg/kg i.p.
  Tumour volume: 370 ± 88 (5) mm^3
[9]; day 48 post implantation, oseltamivir phosphate 10 mg/kg i.p.
  Tumour volume: 275 ± 71 (6) mm^3
[9]; day 48 post implantation, oseltamivir phosphate 50 mg/kg i.p.
  Tumour volume: 383 ± 71 (4) mm^3
[9]; day 48 post implantation, oseltamivir phosphate 100 mg/kg i.p.
  Tumour volume: 397 ± 57 (5) mm^3
[9]; day 61, 2 mg/kg i.p.
  % Inhibition (tumour volume): 34.1%
[9]; day 61, 10 mg/kg i.p.
  % Inhibition (tumour volume): 26.3%
[9]; day 61, 50 mg/kg i.p.
  % Inhibition (tumour volume): 32.4%
[9]; day 61, 100 mg/kg i.p.
  % Inhibition (tumour volume): 27.4%
[9]; day 61 post implantation, oseltamivir phosphate 2 mg/kg i.p.
  Tumour volume: 636 ± 35 (2) mm^3
[9]; day 61 post implantation, oseltamivir phosphate 10 mg/kg i.p.
  Tumour volume: 711 ± 159 (5) mm^3
[9]; day 61 post implantation, oseltamivir phosphate 50 mg/kg i.p.
  Tumour volume: 652 ± 173 (3) mm^3
[9]; day 61 post implantation, oseltamivir phosphate 100 mg/kg i.p.
  Tumour volume: 701 ± 201 (3) mm^3
[9]; oseltamivir phosphate 2, 10, 50 and 100 mg/kg i.p. from day 40 post implantation, vs untreated
  Reduction of tumour growth in time-to-progression: over 50%
[10]; day 79, oseltamivir phosphate 2 mg/kg daily, alone or with Abraxane 0.5 / Gemcitabine 30 mg/kg
  % Inhibition To untreated: 35% (n.s.)
[10]; day 79, oseltamivir phosphate 2 mg/kg i.p. daily, alone or with Abraxane 0.5 / Gemcitabine 30 mg/kg
  Tumour volume: 901 ± 104 (5) mm^3
[10]; day 79, oseltamivir phosphate 5 mg/kg daily, alone or with Abraxane 0.5 / Gemcitabine 30 mg/kg
  % Inhibition To untreated: 31% (n.s.)
[10]; day 79, oseltamivir phosphate 5 mg/kg i.p. daily, alone or with Abraxane 0.5 / Gemcitabine 30 mg/kg
  Tumour volume: 956 ± 345 (4) mm^3
[10]; [12]
  % Inhibition To untreated: 22% (n.s.)
  Tumour volume: 1079 ± 91 (5) mm^3
[10]; [13]
  % Inhibition To untreated: 5% (n.s.)
  Tumour volume: 1321 ± 503 (4) mm^3
[10]; [14]
  % Inhibition To untreated: 0% (n.s.)
  Tumour volume: 1554 ± 469 (2) mm^3
[10]; [15]
  % Inhibition To untreated: 0% (n.s.)
  Tumour volume: 1406 ± 471 (2) mm^3
[10]; oseltamivir phosphate 2 mg/kg, alone day 90, with abraxane 0.5 mg/kg day 78, with gemcitabine 30 mg/kg day 110
  Liver metastases (ave number of nodules): 26
[10]; [16]
  Metastases (size, mm): 0.2-1.3 mm
  Liver metastases % Inhibition: 38%
[10]; oseltamivir phosphate 5 mg/kg, alone day 90, with abraxane 0.5 mg/kg day 90, with gemcitabine 30 mg/kg day 109
  Liver metastases (ave number of nodules): 21
[10]; oseltamivir phosphate 5 mg/kg, alone day 90, with abraxane 0.5 day 90, with gemcitabine 30 day 109
  Liver metastases % Inhibition: 50%
[10]; oseltamivir phosphate 2 and 5 mg/kg, Abraxane 0.5 mg/kg, gemcitabine 30 mg/kg, alone or combined, untreated control day 80
  Survival of tumour bearing mice: 91 days and 94 days
